Results as given in patent US12606528B2, “Methods and materials for inhibiting NF-kB activity” (University of Pittsburgh - Of the Commonwealth System of …, priority 2019, dated 2026).
Read-outs that look alike come from different tables or passages of the source.

Legend:
TNF release = experiment: TNF assay: TNF release from LPS-stimulated human PBMCs (TNF ELISA); assay type: cell-based; settings: PBMC, read-out: IC50 (TNF assay)
Description: 25k THP1-NF-κB-LUC cells were dispensed into 384 well plate (per well). Cells were treated with compounds with various concentrations for 2 hours before addition of LPS (10 ng/mL) for 18 hours. Secreted luciferase activity were measured using quant-luc reagents (1 bag of luc reagent dilute to 40 mL, use 10 μL per well). Data were normalized to vehicle control and graphed. Compound IC50 towards inhibiting NF-κB were determined through Prism. Similarly, 10k human PBMCs cells were cultured in 384 well plate (per well). Cells were treated with compounds with various concentrations for 2 hours before addition of LPS (10 ng/ml) for 18 hours, and supernatants were collected and assayed for TNF ELISA. Compound IC50 towards inhibiting TNF release were determined through Prism. • Activity: “+”>10 μM, “++”>1 μM and <10 μM, “+++”>0.1 μM and <1 μM, “++++”<0.1 μM.

NF-κB = NF-κB assay: THP1-NF-κB-LUC cells, LPS-stimulated secreted luciferase; assay type: cell-based; settings: THP1-NF-κB-LUC cells, read-out: IC50 (NF-κB assay)
Summary of the method: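 THP1-NF-κB-LUC cells (25k/well) were pretreated with compounds for 2 h, then stimulated with LPS (10 ng/mL) for 18 h. Secreted luciferase was measured and normalized to vehicle, and IC50 was fitted from the concentration series.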

[1] = human PBMCs, compounds 2 hours before LPS (10 ng/ml) for 18 hours, supernatant TNF ELISA
[2] = compounds 2 hours before LPS (10 ng/mL) for 18 hours, secreted luciferase
[3] = LPS-stimulated human PBMCs, TNF ELISA

Row | IC50 (TNF release; [1]) | IC50 (NF-κB; [2]) | IC50 (TNF release; [3]) | IC50 (NF-κB; LPS-stimulated) | Compound
1 | > 10 µM | 1 to 10 µM | – | – | CC1Oc2cc(S(=O)(=O)Nc3ccc(F)cc3)c(Br)cc2N(C)C1=O (stereo not drawn) [BC19910]
2 | 1 to 10 µM | < 0.1 µM | – | – | Cc1ccc(NS(=O)(=O)c2cc(Cl)cc3c2OC(C)C(=O)N3)cc1 (stereo not drawn) [BC19718]
3 | 1 to 10 µM | < 0.1 µM | – | – | CCC1Oc2c(cc(Br)cc2S(=O)(=O)Nc2ccc(C(C)C)cc2)N(C)C1=O (stereo not drawn) [BC19933]
4 | > 10 µM | < 0.1 µM | – | – | CS(=O)(=O)c1cc2c(c(S(=O)(=O)Nc3cccc(Cl)c3)c1)OCC(=O)N2 [BC19427]
5 | – | – | > 10 µM | > 10 µM | Cc1ccc(NS(=O)(=O)c2cc3c(cc2Br)NC(=O)CCO3)cc1Cl [BC19659]
6 | – | – | 1 to 10 µM | 0.1 to 1 µM | O=C(c1ccc2nc(-c3ccc(F)cc3)c(-c3ccc(F)cc3)nc2c1)N1CCN(CCOCCO)CC1 [BC19514]
7 | > 10 µM | 1 to 10 µM | – | – | Cc1ccc(Cl)cc1NS(=O)(=O)c1cc(Cl)cc2c1OCC(=O)N2 [BC19170]
8 | > 10 µM | < 0.1 µM | – | – | CC1Oc2c(cc(Br)cc2S(=O)(=O)Nc2cccc(F)c2)N(C)C1=O (stereo not drawn) [BC19902]
9 | – | – | > 10 µM | 0.1 to 1 µM | O=C(NCC1CC1)Nc1ccc2nc(-c3ccc(F)cc3)c(-c3ccc(F)cc3)nc2c1 [BC19569]
10 | – | – | > 10 µM | > 10 µM | N#Cc1ccc2nc(-c3ccc(F)cc3)c(C(F)(F)F)nc2c1 [BC19158]
11 | – | – | < 0.1 µM | < 0.1 µM | COCCS(=O)(=O)c1oc(-c2ccccc2)nc1S(=O)(=O)c1ccc(C)cc1 [BC19266]
12 | – | – | 1 to 10 µM | > 10 µM | CC(C)S(=O)(=O)[C@H]1CN(C(=O)c2ccccc2)C[C@@H]1S(=O)(=O)c1ccc(F)cc1 (racemic) [BC19683]
13 | 1 to 10 µM | < 0.1 µM | – | – | Cc1ccc(NS(=O)(=O)c2cc(Br)cc3c2OC(C)C(=O)N3C)cc1Cl (stereo not drawn) [BC19796]
14 | – | – | > 10 µM | 0.1 to 1 µM | Cc1nc(-c2ccc3nc(-c4ccc(F)cc4)c(-c4ccc(F)cc4)nc3c2)no1 [BC19190]
15 | – | – | > 10 µM | > 10 µM | O=S(=O)(c1ccc(F)cc1)c1nc(-c2ccc(Cl)cc2)sc1[S+]([O-])C1CCCCC1 (stereo not drawn) [BC19594]
16 | – | – | > 10 µM | 0.1 to 1 µM | O=S(=O)(NCCN1CCOCC1)c1ccc2nc(-c3ccc(F)cc3)c(-c3ccc(F)cc3)nc2c1 [BC19504]
17 | > 10 µM | < 0.1 µM | – | – | Cc1ccc(NS(=O)(=O)c2cc3c(cc2Cl)NC(=O)C(C)O3)cc1Cl (stereo not drawn) [BC19708]
18 | – | – | > 10 µM | > 10 µM | CN(C)c1cccc(-c2nc3ccc(C(=O)NCCO)cc3nc2-c2cccc(N(C)C)c2)c1 [BC19502]
19 | – | – | > 10 µM | < 0.1 µM | Fc1ccc(-c2nc3ccc(-c4cn(CCN5CCOCC5)nn4)cc3nc2-c2ccc(F)cc2)cc1 [BC19240]
20 | – | – | > 10 µM | < 0.1 µM | O=C(NCCN1CCOCC1)c1ccc2nc(-c3ccc(Cl)cc3)c(-c3ccc(Cl)cc3)nc2c1 [BC19497]
21 | – | – | > 10 µM | 0.1 to 1 µM | O=C(NCCCO)Nc1ccc2nc(-c3ccc(F)cc3)c(-c3ccc(F)cc3)nc2c1 [BC19575]
22 | > 10 µM | > 10 µM | – | – | Cc1ccc(NS(=O)(=O)c2cc3c(cc2Br)N(C)C(=O)C(C)O3)cc1 (stereo not drawn) [BC19912]
23 | – | – | > 10 µM | 0.1 to 1 µM | CS(=O)(=O)c1cncc(-c2ccc3nc(-c4ccc(F)cc4)c(-c4ccc(F)cc4)nc3c2)c1 [BC19243]
24 | > 10 µM | 0.1 to 1 µM | – | – | CCC1Oc2cc(S(=O)(=O)Nc3ccc(C)cc3)c(Br)cc2NC1=O (stereo not drawn) [BC19224]
25 | – | – | > 10 µM | > 10 µM | Fc1ccc(-c2nc3cc(-c4nnco4)ccc3nc2C(F)(F)F)cc1 [BC19116]
26 | > 10 µM | > 10 µM | – | – | CC1Oc2c(cc(Br)cc2S(=O)(=O)NC2CCC(O)CC2)NC1=O (stereo not drawn) [BC19366]

Row | IC50 (TNF release; [1]) | IC50 (NF-κB; [2]) | IC50 (TNF release; [3]) | IC50 (NF-κB; LPS-stimulated) | Compound
27 | 1 to 10 µM | 0.1 to 1 µM | – | – | CC1Oc2cc(S(=O)(=O)Nc3ccc(F)cc3F)c(Br)cc2N(C)C1=O (stereo not drawn) [BC19799]
28 | – | – | > 10 µM | > 10 µM | CC(C)CS(=O)(=O)c1sc(C2CCCCC2)nc1S(=O)(=O)c1ccc(Cl)cc1 [BC19638]
29 | – | – | > 10 µM | > 10 µM | CNC(=O)c1ccc2nc(-c3ccc(OC(F)(F)F)cc3)c(-c3ccc(OC(F)(F)F)cc3)nc2c1 [BC19447]
30 | – | – | > 10 µM | < 0.1 µM | OCCn1cc(-c2ccc3nc(-c4ccc(F)cc4)c(-c4ccc(F)cc4)nc3c2)nn1 [BC19396]
31 | – | – | 0.1 to 1 µM | < 0.1 µM | Cc1ccc(S(=O)(=O)c2nc(-c3ccccc3)oc2S(=O)(=O)CC2CC2)cc1 [BC19265]
32 | – | – | > 10 µM | < 0.1 µM | CN1CCN(C(=O)c2ccc3nc(-c4ccc(F)cc4)c(-c4ccc(Cl)cc4)nc3c2)CC1 [BC19317]
33 | – | – | > 10 µM | 0.1 to 1 µM | C#CCNC(=O)c1ccc2nc(-c3ccc(F)cc3)c(-c3cccs3)nc2c1 [BC19189]
34 | > 10 µM | > 10 µM | – | – | CC1Oc2cc(S(=O)(=O)N3CCCC3)c(Cl)cc2NC1=O (stereo not drawn) [BC19208]
35 | > 10 µM | < 0.1 µM | – | – | CC1Oc2cc(S(=O)(=O)Nc3ccc(F)c(F)c3)c(Br)cc2NC1=O (stereo not drawn) [BC19284]
36 | – | – | > 10 µM | > 10 µM | CN1CCN(C(=O)c2ccc3nc(-c4ccc(OC(F)(F)F)cc4)c(-c4ccc(OC(F)(F)F)cc4)nc3c2)CC1 [BC19445]
37 | > 10 µM | 1 to 10 µM | – | – | CC1Oc2cc(S(=O)(=O)Nc3ccccc3)c(Cl)cc2NC1=O (stereo not drawn) [BC19206]
38 | – | – | 1 to 10 µM | > 10 µM | CC(C)CS(=O)(=O)c1sc(-c2ccc(Cl)cc2)nc1S(=O)(=O)c1ccc(Cl)cc1 [BC19529]
39 | – | – | > 10 µM | 0.1 to 1 µM | O=C(NCCCN1CCOCC1)Nc1ccc2nc(-c3ccc(F)cc3)c(-c3ccc(F)cc3)nc2c1 [BC19576]
40 | – | – | > 10 µM | 0.1 to 1 µM | CN1CCN(C(=O)C2Cc3nc(-c4ccc(F)cc4)c(-c4ccc(F)cc4)nc3C2)CC1 [BC19723]
41 | – | – | > 10 µM | > 10 µM | Cn1ncc2c(-c3ccc4nc(-c5ccc(F)cc5)c(-c5ccc(F)cc5)nc4c3)cccc21 [BC19305]
42 | – | – | > 10 µM | 1 to 10 µM | O=S(=O)(c1ccc(F)cc1)c1nc(-c2cccc(F)c2)sc1[S+]([O-])CC1CC1 (stereo not drawn) [BC19597]
43 | > 10 µM | < 0.1 µM | – | – | O=c1c(S(=O)(=O)c2ccc(F)c(F)c2)c[nH]c2c(F)ccc(F)c12 [BC19252]
44 | – | – | > 10 µM | 0.1 to 1 µM | C[C@H](Cl)C(=O)Nc1ccc2nc(-c3ccc(F)cc3)c(-c3ccc(F)cc3)nc2c1 [BC19315]
45 | – | – | > 10 µM | > 10 µM | Cn1oc(-c2ccc3nc(-c4ccc(F)cc4)c(-c4ccc(F)cc4)nc3c2)cc1=O [BC19667]
46 | – | – | > 10 µM | > 10 µM | COc1ccc(NS(=O)(=O)c2cc3c(cc2Br)NC(=O)CCO3)cc1 [BC19692]
47 | 0.1 to 1 µM | > 10 µM | – | – | Nc1cccc2cc(S(=O)(=O)c3ccccc3)cnc12 [BC19324]
48 | > 10 µM | < 0.1 µM | – | – | COc1ccc(NS(=O)(=O)c2cc(Cl)cc3c2OC(C)C(=O)N3)cc1Cl (stereo not drawn) [BC19292]
49 | – | – | > 10 µM | > 10 µM | O=C1CCOc2cc(S(=O)(=O)Nc3ccc(F)cc3)c(Br)cc2N1 [BC19660]
50 | > 10 µM | 0.1 to 1 µM | – | – | CC1Oc2cc(S(=O)(=O)Nc3ccc(F)cc3Cl)c(Cl)cc2NC1=O (stereo not drawn) [BC19719]
51 | > 10 µM | < 0.1 µM | – | – | CCC1Oc2c(cc(Br)cc2S(=O)(=O)NCc2ccc(C(F)(F)F)cc2)NC1=O (stereo not drawn) [BC19377]
